Read-outs that look alike come from different tables or passages of the source.
System: HSV-2
Assay: Plaque reduction assay, HSV-2 clinical isolates on Vero cells
Type: cell-based
Conditions: for IC50: Human alphaherpesvirus 2, Vero
Excerpt: Viral isolates were used to infect a sub-confluent monolayer of Vero cells at a concentration of 75 or 50 plaque forming units (PFU) per well for HSV-1 and HSV-2, respectively. […] CMC medium typically used to create a semisolid interface and prevents indiscrimate viral spreading. Other materials (e.g. agar) may also be used to create this interface.
Cells were fixed with 10% formalin and stained with crystal violet before enumeration of the plaques (microscopic observation or use of fluorescent antibodies for detection is also suitable). The data obtained from these experiments were then expressed as percent inhibition of viral infectivity relative to the no drug control.
Definitions of phenotypic drug susceptibility classification as sensitive or resistant were as follows: ACV, <3 μM or >40 μM; PCV, <10 μM or >40 μM; CDV, <24 μM or >30 μM; FOS, <250 μM or >400 μM; and ACV, <6.5 μM or >40 μM; PCV, <38 μM or >40 μM; FOS, <250 μM or >400 μM for HSV-1 and HSV-2, respectively. Any IC50 values falling in between these sensitive and resistant cut-offs were reported as intermediate resistance.
The phenotype (i.e. reactivity to a drug) of the virus was characterised by the plaque reduction assay as described above. The present inventors have characterised the resistance-causing phenotype of a large number of TK and DNA pol mutations.

## Nc1nc2c(ncn2COCCO)c(=O)[nH]1 [Aciclovir, acyclovir]
HSV-2 DNA pol R628G (18820>G)
  Level of resistance: weak/intermediate resistance
Isolate HPG001, HSV-2 TK A125T (373G>A), read-out: Drug susceptibility (IC50 value)
  IC50: 1.53 µM
Isolate HPG001, HSV-2 pol H714R (2141A>G), read-out: Drug susceptibility (IC50 value)
  IC50: 1.53 µM
Isolate HPG004, HSV-2 pol M494T (1481T>C), also pol S729N, read-out: Drug susceptibility (IC50 value)
  IC50: > 40 µM
Isolate HPG007, HSV-2 pol R628G (1882C>G), read-out: Drug susceptibility (IC50 value)
  IC50: 28.6 µM
Isolate HPG017, HSV-2 TK Q186H (558G>T), read-out: Drug susceptibility (IC50 value)
  IC50: 10.2 µM
Isolate HPG022, HSV-2 TK E213D (639A>C), read-out: Drug susceptibility (IC50 value)
  IC50: 4.46 µM
Isolate HPG022, HSV-2 pol D174Y (520G>T), read-out: Drug susceptibility (IC50 value)
  IC50: 4.46 µM
Isolate HPG023, HSV-2 TK Q186H (558G>T), read-out: Drug susceptibility (IC50 value)
  IC50: 12.1 µM
Isolate HPG024, HSV-2 TK E213D (639A>C), read-out: Drug susceptibility (IC50 value)
  IC50: 2.5 µM
Isolate HPG028, HSV-2 TK 98stop or A94fs (276delG, 278delG, 279delG, or 280delG), read-out: Drug susceptibility (IC50 value)
  IC50: > 40 µM
Isolate HPG028, HSV-2 pol E776Q (2326G>C), also TK deletion (G) nt 276-280, read-out: Drug susceptibility (IC50 value)
  IC50: > 40 µM
Isolate HPG028, HSV-2 pol R775C, R775W (2323C>T; 2325C>G), also TK deletion (G) nt 276-280, read-out: Drug susceptibility (IC50 value)
  IC50: > 40 µM
Isolate HPG030, HSV-2 TK Q90stop (268C>T), read-out: Drug susceptibility (IC50 value)
  IC50: > 40 µM
Isolate HPG030, HSV-2 pol E761K (2281G>A), also TK Q90stop, read-out: Drug susceptibility (IC50 value)
  IC50: > 40 µM
Isolate HPG036, HSV-2 TK E84K (250G>A), read-out: Drug susceptibility (IC50 value)
  IC50: > 40 µM
Isolate HPG038, HSV-2 TK R34C (100C>T), read-out: Drug susceptibility (IC50 value)
  IC50: 2.04 µM
Isolate HPG044, HSV-2 TK M86L (256A>C), read-out: Drug susceptibility (IC50 value)
  IC50: > 40 µM
Isolate HPG048, HSV-2 TK Q90stop (268C>T), read-out: Drug susceptibility (IC50 value)
  IC50: > 40 µM
Isolate HPG048, HSV-2 pol E761K (2281G>A), also TK Q90stop, read-out: Drug susceptibility (IC50 value)
  IC50: > 40 µM
Isolate HPG057, HSV-2 TK 98stop or A94fs (276delG, 278delG, 279delG, or 280delG), read-out: Drug susceptibility (IC50 value)
  IC50: > 40 µM
Isolate HPG058, HSV-2 TK 183stop or P154fs (458delC, 459delC, 460delC, or 461delC), read-out: Drug susceptibility (IC50 value)
  IC50: 36.2 µM
read-out: Drug susceptibility (IC50 value), isolate HPG034, HSV-2 TK L313S (938A>C)
  IC50: 35.8 µM
read-out: Drug susceptibility (IC50 value), isolate HPG056, HSV-2 pol M447L (1339A>C)
  IC50: 1.56 µM
read-out: Drug susceptibility Aciclovir (ACV), isolate HPG001, HSV-2 TK A125T (373G>A)
  IC50: < 6.5 µM
read-out: Drug susceptibility Aciclovir (ACV), isolate HPG001, HSV-2 pol H714R (2141A>G)
  IC50: < 6.5 µM
read-out: Drug susceptibility Aciclovir (ACV), isolate HPG004, HSV-2 pol M494T (1481T>C), also pol S729N
  IC50: > 40 µM
read-out: Drug susceptibility Aciclovir (ACV), isolate HPG007, HSV-2 pol R628G (1882C>G)
  IC50: 6.5 to 40 µM
read-out: Drug susceptibility Aciclovir (ACV), isolate HPG017, HSV-2 TK Q186H (558G>T)
  IC50: 6.5 to 40 µM
read-out: Drug susceptibility Aciclovir (ACV), isolate HPG022, HSV-2 TK E213D (639A>C)
  IC50: < 6.5 µM
read-out: Drug susceptibility Aciclovir (ACV), isolate HPG022, HSV-2 pol D174Y (520G>T)
  IC50: < 6.5 µM
read-out: Drug susceptibility Aciclovir (ACV), isolate HPG023, HSV-2 TK Q186H (558G>T)
  IC50: 6.5 to 40 µM
read-out: Drug susceptibility Aciclovir (ACV), isolate HPG024, HSV-2 TK E213D (639A>C)
  IC50: < 6.5 µM
read-out: Drug susceptibility Aciclovir (ACV), isolate HPG028, HSV-2 TK 98stop or A94fs (276delG, 278delG, 279delG, or 280delG)
  IC50: > 40 µM
read-out: Drug susceptibility Aciclovir (ACV), isolate HPG028, HSV-2 pol E776Q (2326G>C), also TK deletion (G) nt 276-280
  IC50: > 40 µM
read-out: Drug susceptibility Aciclovir (ACV), isolate HPG028, HSV-2 pol R775C, R775W (2323C>T; 2325C>G), also TK deletion (G) nt 276-280
  IC50: > 40 µM
read-out: Drug susceptibility Aciclovir (ACV), isolate HPG030, HSV-2 TK Q90stop (268C>T)
  IC50: > 40 µM
read-out: Drug susceptibility Aciclovir (ACV), isolate HPG030, HSV-2 pol E761K (2281G>A), also TK Q90stop
  IC50: > 40 µM
read-out: Drug susceptibility Aciclovir (ACV), isolate HPG034, HSV-2 TK L313S (938A>C)
  IC50: 6.5 to 40 µM
read-out: Drug susceptibility Aciclovir (ACV), isolate HPG036, HSV-2 TK E84K (250G>A)
  IC50: > 40 µM
read-out: Drug susceptibility Aciclovir (ACV), isolate HPG038, HSV-2 TK R34C (100C>T)
  IC50: < 6.5 µM
read-out: Drug susceptibility Aciclovir (ACV), isolate HPG044, HSV-2 TK M86L (256A>C)
  IC50: > 40 µM
read-out: Drug susceptibility Aciclovir (ACV), isolate HPG048, HSV-2 TK Q90stop (268C>T)
  IC50: > 40 µM
read-out: Drug susceptibility Aciclovir (ACV), isolate HPG048, HSV-2 pol E761K (2281G>A), also TK Q90stop
  IC50: > 40 µM
read-out: Drug susceptibility Aciclovir (ACV), isolate HPG056, HSV-2 pol M447L (1339A>C)
  IC50: < 6.5 µM
read-out: Drug susceptibility Aciclovir (ACV), isolate HPG057, HSV-2 TK 98stop or A94fs (276delG, 278delG, 279delG, or 280delG)
  IC50: > 40 µM
read-out: Drug susceptibility Aciclovir (ACV), isolate HPG058, HSV-2 TK 183stop or P154fs (458delC, 459delC, 460delC, or 461delC)
  IC50: 6.5 to 40 µM

Source: patent US12281363B2, “Methods for detecting antiviral-drug resistant virus” (Secretary of State for Health and Social Care, priority 2018, dated 2025)
